Assays:
Format in all cases: in vivo
[1] = test system: pigweed (Amaranthus retroflexus); assay: Test C preemergence, visual plant response rating
Method in brief: (§1)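 Seeds sown in a loam–sand blend got a directed preemergence soil spray; postemergence plants (2–10 cm, one- to two-leaf stage) were sprayed with compound in a non-phytotoxic solvent plus surfactant. Injury was scored visually against untreated controls after about 10 d in a greenhouse on a 0–100 scale (100 = complete control).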

[2] = test system: Italian ryegrass (Lolium mutiflorum); assay: Test C preemergence, visual plant response rating
Method in brief: as §1

[3] = test system: barnyardgrass (Echinochloa crus-galli); assay: Test C preemergence, visual plant response rating
Method in brief: as §1

[4] = test system: kochia (Bassia scoparia); assay: Test C preemergence, visual plant response rating
Method in brief: as §1

[5] = test system: foxtail, giant (giant foxtail, Setaria faberi); assay: Test C preemergence, visual plant response rating
Method in brief: as §1

[6] = test system: ragweed (common ragweed, Ambrosia artemisiifolia); assay: Test C preemergence, visual plant response rating
Method in brief: as §1

[7] = test system: sedge umbrella (small-flower umbrella sedge, Cyperus difformis); assay: Test D flooded paddy test, visual plant response rating; settings: 250 g ai/ha, scale 0 to 100 (0 no effect, 100 complete control), 13 to 15 d
Method in brief: (§2)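 Plants grown to the 2-leaf stage; pots flooded to 3 cm above soil and compound applied directly into paddy water, depth held throughout. Kept in greenhouse 13 to 15 d, then rated visually against untreated controls on a 0–100 scale (0 no effect, 100 complete control).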

[8] = test system: barnyardgrass (Echinochloa crus-galli); assay: as above; settings: 250 g ai/ha, scale 0 to 100 (0 no effect, 100 complete control), 13 to 15 d
Method in brief: as §2

[9] = test system: duck salad (Heteranthera limosa); assay: as above; settings: 250 g ai/ha, scale 0 to 100 (0 no effect, 100 complete control), 13 to 15 d
Method in brief: as §2

[10] = test system: rice (Oryza sativa); assay: as above; settings: 250 g ai/ha, scale 0 to 100 (0 no effect, 100 complete control), 13 to 15 d
Method in brief: as §2

[11] = test system: pigweed (Amaranthus retroflexus); assay: Test C postemergence, visual plant response rating
Method in brief: as §1

[12] = test system: Italian ryegrass (Lolium mutiflorum); assay: Test C postemergence, visual plant response rating
Method in brief: as §1

[13] = test system: barnyardgrass (Echinochloa crus-galli); assay: Test C postemergence, visual plant response rating
Method in brief: as §1

[14] = test system: kochia (Bassia scoparia); assay: Test C postemergence, visual plant response rating
Method in brief: as §1

[15] = test system: foxtail, giant (giant foxtail, Setaria faberi); assay: Test C postemergence, visual plant response rating
Method in brief: as §1

[16] = test system: ragweed (common ragweed, Ambrosia artemisiifolia); assay: Test C postemergence, visual plant response rating
Method in brief: as §1

[17] = test system: blackgrass (Alopecurus myosuroides); assay: Test C postemergence, visual plant response rating
Method in brief: as §1

[18] = test system: galium (catchweed bedstraw, Galium aparine); assay: Test C postemergence, visual plant response rating
Method in brief: as §1

[19] = test system: corn (Zea mays); assay: Test C postemergence, visual plant response rating
Method in brief: as §1

[20] = test system: wheat (Triticum aestivum); assay: Test C postemergence, visual plant response rating
Method in brief: as §1

[21] = Test C, 31 g ai/ha, 0 is no effect, 100 is complete control
[22] = Test C, 125 g ai/ha, 0 is no effect, 100 is complete control
[23] = Test C, postemergence, 125 g ai/ha

SMILES: C#CCO/N=C(/c1c(O)c(C)nn(C)c1=O)c1cc(Cl)cc2ccccc12 [Compound 192]
- Pigweed plant response rating (0 to 100 scale) [1, 21]: 40
- Pigweed plant response rating (0 to 100 scale) [1, 22]: 100
- Ryegrass, Italian plant response rating (0 to 100 scale) [2, 21]: 10
- Ryegrass, Italian plant response rating (0 to 100 scale) [2, 22]: 70
- Barnyardgrass plant response rating (0 to 100 scale) [3, 21]: 30
- Barnyardgrass plant response rating (0 to 100 scale) [3, 22]: 90
- Kochia plant response rating (0 to 100 scale) [4, 21]: 0
- Kochia plant response rating (0 to 100 scale) [4, 22]: 20
- Foxtail, Giant plant response rating (0 to 100 scale) [5, 21]: 60
- Foxtail, Giant plant response rating (0 to 100 scale) [5, 22]: 90
- Ragweed plant response rating (0 to 100 scale) [6, 21]: 30
- Ragweed plant response rating (0 to 100 scale) [6, 22]: 70
- Plant response rating, Sedge, Umbrella (Flood) [7]: 70
- Plant response rating, Barnyardgrass (Flood) [8]: 50
- Plant response rating, Ducksalad (Flood) [9]: 70
- Plant response rating, Rice (Flood) [10]: 0
- Pigweed plant response rating (0 to 100 scale) ([11]; Postemergence, 31 g ai/ha): 50
- Pigweed plant response rating (0 to 100 scale) [11, 23]: 80
- Ryegrass, Italian plant response rating (0 to 100 scale) ([12]; Postemergence, 31 g ai/ha): 20
- Ryegrass, Italian plant response rating (0 to 100 scale) [12, 23]: 70
- Barnyardgrass plant response rating (0 to 100 scale) ([13]; Postemergence, 31 g ai/ha): 80
- Barnyardgrass plant response rating (0 to 100 scale) [13, 23]: 90
- Kochia plant response rating (0 to 100 scale) ([14]; Postemergence, 31 g ai/ha): 30
- Kochia plant response rating (0 to 100 scale) [14, 23]: 60
- Foxtail, Giant plant response rating (0 to 100 scale) ([15]; Postemergence, 31 g ai/ha): 70
- Foxtail, Giant plant response rating (0 to 100 scale) [15, 23]: 80
- Ragweed plant response rating (0 to 100 scale) ([16]; Postemergence, 31 g ai/ha): 80
- Ragweed plant response rating (0 to 100 scale) [16, 23]: 90
- Blackgrass plant response rating (0 to 100 scale) ([17]; Postemergence, 31 g ai/ha): 40
- Blackgrass plant response rating (0 to 100 scale) [17, 23]: 70
- Galium plant response rating (0 to 100 scale) ([18]; Postemergence, 31 g ai/ha): 80
- Galium plant response rating (0 to 100 scale) [18, 23]: 100
- Corn plant response rating (0 to 100 scale) ([19]; Postemergence, 31 g ai/ha): 20
- Corn plant response rating (0 to 100 scale) [19, 23]: 30
- Wheat plant response rating (0 to 100 scale) ([20]; Postemergence, 31 g ai/ha): 0
- Wheat plant response rating (0 to 100 scale) [20, 23]: 50

SMILES: CON=C(c1cc(F)cc(F)c1F)c1c(O)c(C)nn(C)c1=O [Compound 226]
- Pigweed plant response rating (0 to 100 scale) [1, 21]: 30
- Pigweed plant response rating (0 to 100 scale) [1, 22]: 70
- Ryegrass, Italian plant response rating (0 to 100 scale) [2, 21]: 30
- Ryegrass, Italian plant response rating (0 to 100 scale) [2, 22]: 70
- Barnyardgrass plant response rating (0 to 100 scale) [3, 21]: 0
- Barnyardgrass plant response rating (0 to 100 scale) [3, 22]: 0
- Kochia plant response rating (0 to 100 scale) [4, 21]: 0
- Kochia plant response rating (0 to 100 scale) [4, 22]: 40
- Foxtail, Giant plant response rating (0 to 100 scale) [5, 21]: 10
- Foxtail, Giant plant response rating (0 to 100 scale) [5, 22]: 10
- Ragweed plant response rating (0 to 100 scale) [6, 21]: 30
- Ragweed plant response rating (0 to 100 scale) [6, 22]: 70
- Plant response rating, Sedge, Umbrella (Flood) [7]: 0
- Plant response rating, Barnyardgrass (Flood) [8]: 0
- Plant response rating, Ducksalad (Flood) [9]: 0
- Plant response rating, Rice (Flood) [10]: 0
- Pigweed plant response rating (0 to 100 scale) ([11]; Postemergence, 31 g ai/ha): 30
- Pigweed plant response rating (0 to 100 scale) [11, 23]: 50
- Ryegrass, Italian plant response rating (0 to 100 scale) ([12]; Postemergence, 31 g ai/ha): 20
- Ryegrass, Italian plant response rating (0 to 100 scale) [12, 23]: 50
- Barnyardgrass plant response rating (0 to 100 scale) ([13]; Postemergence, 31 g ai/ha): 10
- Barnyardgrass plant response rating (0 to 100 scale) [13, 23]: 20
- Kochia plant response rating (0 to 100 scale) ([14]; Postemergence, 31 g ai/ha): 20
- Kochia plant response rating (0 to 100 scale) [14, 23]: 60
- Foxtail, Giant plant response rating (0 to 100 scale) ([15]; Postemergence, 31 g ai/ha): 30
- Foxtail, Giant plant response rating (0 to 100 scale) [15, 23]: 40
- Ragweed plant response rating (0 to 100 scale) ([16]; Postemergence, 31 g ai/ha): 30
- Ragweed plant response rating (0 to 100 scale) [16, 23]: 70
- Blackgrass plant response rating (0 to 100 scale) ([17]; Postemergence, 31 g ai/ha): 0
- Blackgrass plant response rating (0 to 100 scale) [17, 23]: 0
- Galium plant response rating (0 to 100 scale) ([18]; Postemergence, 31 g ai/ha): 50
- Galium plant response rating (0 to 100 scale) [18, 23]: 90
- Corn plant response rating (0 to 100 scale) ([19]; Postemergence, 31 g ai/ha): 0
- Corn plant response rating (0 to 100 scale) [19, 23]: 0
- Wheat plant response rating (0 to 100 scale) ([20]; Postemergence, 31 g ai/ha): 0
- Wheat plant response rating (0 to 100 scale) [20, 23]: 0

SMILES: C#CCO/N=C(\c1c(O)c(C)nn(C)c1=O)c1cc(Cl)cc2ccccc12 [Compound 191]
- Pigweed plant response rating (0 to 100 scale) ([1]; 125 g ai/ha): 100
- Pigweed plant response rating (0 to 100 scale) [1, 21]: 80
- Ryegrass, Italian plant response rating (0 to 100 scale) ([2]; 125 g ai/ha): 80
- Ryegrass, Italian plant response rating (0 to 100 scale) [2, 21]: 30
- Barnyardgrass plant response rating (0 to 100 scale) ([3]; 125 g ai/ha): 90
- Barnyardgrass plant response rating (0 to 100 scale) [3, 21]: 30
- Kochia plant response rating (0 to 100 scale) ([4]; 125 g ai/ha): 60
- Kochia plant response rating (0 to 100 scale) [4, 21]: 10
- Foxtail, Giant plant response rating (0 to 100 scale) ([5]; 125 g ai/ha): 90
- Foxtail, Giant plant response rating (0 to 100 scale) [5, 21]: 70
- Ragweed plant response rating (0 to 100 scale) ([6]; 125 g ai/ha): 80
- Ragweed plant response rating (0 to 100 scale) [6, 21]: 50
- Plant response rating, Sedge, Umbrella (Flood) [7]: 80
- Plant response rating, Barnyardgrass (Flood) [8]: 70
- Plant response rating, Ducksalad (Flood) [9]: 75
- Plant response rating, Rice (Flood) [10]: 60
- Pigweed plant response rating (0 to 100 scale) ([11]; Postemergence, 31 g ai/ha): 90
- Pigweed plant response rating (0 to 100 scale) [11, 23]: 100
- Ryegrass, Italian plant response rating (0 to 100 scale) ([12]; Postemergence, 31 g ai/ha): 0
- Ryegrass, Italian plant response rating (0 to 100 scale) [12, 23]: 80
- Barnyardgrass plant response rating (0 to 100 scale) ([13]; Postemergence, 31 g ai/ha): 80
- Barnyardgrass plant response rating (0 to 100 scale) [13, 23]: 90
- Kochia plant response rating (0 to 100 scale) ([14]; Postemergence, 31 g ai/ha): 50
- Kochia plant response rating (0 to 100 scale) [14, 23]: 80
- Foxtail, Giant plant response rating (0 to 100 scale) ([15]; Postemergence, 31 g ai/ha): 70
- Foxtail, Giant plant response rating (0 to 100 scale) [15, 23]: 80
- Ragweed plant response rating (0 to 100 scale) ([16]; Postemergence, 31 g ai/ha): 70
- Ragweed plant response rating (0 to 100 scale) [16, 23]: 80
- Blackgrass plant response rating (0 to 100 scale) ([17]; Postemergence, 31 g ai/ha): 80
- Blackgrass plant response rating (0 to 100 scale) [17, 23]: 70
- Galium plant response rating (0 to 100 scale) ([18]; Postemergence, 31 g ai/ha): 70
- Galium plant response rating (0 to 100 scale) [18, 23]: 100
- Corn plant response rating (0 to 100 scale) ([19]; Postemergence, 31 g ai/ha): 10
- Corn plant response rating (0 to 100 scale) [19, 23]: 60
- Wheat plant response rating (0 to 100 scale) ([20]; Postemergence, 31 g ai/ha): 0
- Wheat plant response rating (0 to 100 scale) [20, 23]: 70

— patent publication US20210045385A1, “PYRIDAZINONE-SUBSTITUTED KETOXIMES AS HERBICIDES” (FMC Corporation, priority 2018, published 2021)
